Source: the NIST ThermoML archive (doi:10.1016/j.jct.2017.10.014)

Legend:
[1] = mn = molality of the nth substance listed, in mol/kg; conditions: 100 kPa, Liquid, Capillary tube (Ostwald / Ubbelohde) method
[2] = xn = mol fraction of the nth substance listed; conditions: 100 kPa, Liquid, Vibrating tube method

CC(C)(CO)[C@@H](O)C(=O)NCCCO [d-Panthenol] + O
Conditions	mass density [kg/m3]	viscosity [mPa·s]
[1], 293.15 K, m1 = 0.01	–	1.009
[1], 293.15 K, m1 = 0.05	–	1.039
[1], 293.15 K, m1 = 0.1001	–	1.078
[1], 293.15 K, m1 = 0.1989	–	1.159
[1], 293.15 K, m1 = 0.3002	–	1.246
[1], 293.15 K, m1 = 0.4006	–	1.334
[1], 293.15 K, m1 = 0.4997	–	1.421
[1], 298.15 K, m1 = 0.01	–	0.896
[1], 298.15 K, m1 = 0.05	–	0.923
[1], 298.15 K, m1 = 0.1001	–	0.957
[1], 298.15 K, m1 = 0.1989	–	1.027
[1], 298.15 K, m1 = 0.3002	–	1.1
[1], 298.15 K, m1 = 0.4006	–	1.173
[1], 298.15 K, m1 = 0.4997	–	1.253
[1], 303.15 K, m1 = 0.01	–	0.803
[1], 303.15 K, m1 = 0.05	–	0.826
[1], 303.15 K, m1 = 0.1001	–	0.855
[1], 303.15 K, m1 = 0.1989	–	0.917
[1], 303.15 K, m1 = 0.3002	–	0.98
[1], 303.15 K, m1 = 0.4006	–	1.045
[1], 303.15 K, m1 = 0.4997	–	1.105
[1], 308.15 K, m1 = 0.01	–	0.724
[1], 308.15 K, m1 = 0.05	–	0.744
[1], 308.15 K, m1 = 0.1001	–	0.769
[1], 308.15 K, m1 = 0.1989	–	0.822
[1], 308.15 K, m1 = 0.3002	–	0.877
[1], 308.15 K, m1 = 0.4006	–	0.932
[1], 308.15 K, m1 = 0.4997	–	0.99
[1], 313.15 K, m1 = 0.01	–	0.657
[1], 313.15 K, m1 = 0.05	–	0.675
[1], 313.15 K, m1 = 0.1001	–	0.697
[1], 313.15 K, m1 = 0.1989	–	0.743
[1], 313.15 K, m1 = 0.3002	–	0.791
[1], 313.15 K, m1 = 0.4006	–	0.839
[1], 313.15 K, m1 = 0.4997	–	0.887
[2], 293.15 K, x1 = 0.0036	1004.95	–
[2], 293.15 K, x1 = 0.0054	1008.18	–
[2], 293.15 K, x1 = 0.0071	1011.3	–
[2], 293.15 K, x1 = 0.0089	1014.36	–
[2], 293.15 K, x1 = 0.0107	1017.42	–
[2], 293.15 K, x1 = 0.0124	1020.22	–
[2], 293.15 K, x1 = 0.0142	1023.06	–
[2], 293.15 K, x1 = 0.0248	1039.61	–
[2], 293.15 K, x1 = 0.031	1049.02	–
[2], 293.15 K, x1 = 0.0376	1055.92	–
[2], 293.15 K, x1 = 0.0501	1068.98	–
[2], 293.15 K, x1 = 0.0996	1102.82	–
[2], 293.15 K, x1 = 0.1997	1134.36	–
[2], 293.15 K, x1 = 0.2495	1141.94	–
[2], 293.15 K, x1 = 0.2871	1146.56	–
[2], 293.15 K, x1 = 0.342	1151.05	–
[2], 293.15 K, x1 = 0.4007	1154.55	–
[2], 293.15 K, x1 = 0.4958	1158.52	–
[2], 293.15 K, x1 = 0.5944	1160.64	–
[2], 293.15 K, x1 = 0.708	1162.75	–
[2], 293.15 K, x1 = 0.8067	1163.58	–
[2], 293.15 K, x1 = 0.8753	1164.26	–
[2], 293.15 K, x1 = 1	1165.18	–
[2], 298.15 K, x1 = 0.0036	1003.69	–
[2], 298.15 K, x1 = 0.0054	1006.88	–
[2], 298.15 K, x1 = 0.0071	1009.95	–
[2], 298.15 K, x1 = 0.0089	1012.97	–
[2], 298.15 K, x1 = 0.0107	1016	–
[2], 298.15 K, x1 = 0.0124	1018.76	–
[2], 298.15 K, x1 = 0.0142	1021.57	–
[2], 298.15 K, x1 = 0.0248	1037.84	–
[2], 298.15 K, x1 = 0.031	1046.69	–
[2], 298.15 K, x1 = 0.0376	1053.81	–
[2], 298.15 K, x1 = 0.0501	1066.6	–
[2], 298.15 K, x1 = 0.0996	1099.84	–
[2], 298.15 K, x1 = 0.1997	1130.9	–
[2], 298.15 K, x1 = 0.2495	1138.2	–
[2], 298.15 K, x1 = 0.2871	1142.9	–
[2], 298.15 K, x1 = 0.342	1147.23	–
[2], 298.15 K, x1 = 0.4007	1150.87	–
